Experiments:
Type in all cases: physicochemical
[1] = Release rate of 1-MCP by hydration with water (method C)
Procedure: This Example illustrates the release rate of 1-MCP from MCPNs and cyclodextrins. […] Encapsulation of sample S4 was carried out using methods A and D. Method C was used for the release of 1-MCP, where about 25 mg of S1 and S4 were hydrated with 25 mL of water in a 500 mL glass bottle under agitation. Headspace samples were withdrawn periodically to quantify the released 1-MCP.

[2] = Thermal stability by thermogravimetric analysis (TGA); conditions: 10° C./min to 600° C. under nitrogen
Procedure: This Example illustrates the thermal stability of MCPN. Thermogravimetric analysis (TGA) was conducted to determine the temperature that causes structural change in MCPN. […] TGA data was collected on a TA Q5000 Analyzer with a temperature ramping rate of 10° C./min from room temperature to 600° C. under nitrogen gas flow.

[3] = Adsorption or inclusion level of 1-MCP in adsorbents/encapsulants (release in water, headspace GC)
Procedure: This Example provides specific examples of methods for adsorbing 1-MCP into a MCPN. Adsorption of 1-MCP was carried out using both a modified solid method (method A) and a solution-based method (method B), as disclosed herein. The general protocol in both methods included a dual-vessel system, where 1-MCP was generated in the first vessel, also referred to as the generation vessel, and the adsorption took place in the second vessel, also referred to as the adsorption vessel. Before adsorption, 50 mg of adsorbent was first dried in a vacuum oven at 100° C. overnight and sealed in the adsorption vessel. […]
This Example illustrates some of the differences between the MCPNs of the present disclosure and prior art encapsulants (cyclodextrins). […] The percentage adsorbed or encapsulated was quantified by taking 55 mg of A1 or E4 and mixed with 25 ml of water in 500 ml sealed glass bottles to release 1-MCP.
Headspace sample was collected and injected into gas chromatography using methods described in Mir, “Harvest Maturity, Storage Temperature and 1-MCP Application Frequency Alter Firmness Retention and Chlorophyll Fluorescence of “Redchief Delicious” Apples,” Journal of American society of horticultural science, 2001, 126(5): 618-624). […] The peak area was used to quantify the concentration.

[4] = Stability in water by powder X-ray diffraction; conditions: soaked in water 1 hour, 5 hours, 20 hours

SMILES | Time to complete release of 1-MCP ([1]; loaded by method A) | Time to complete release of 1-MCP ([1]; loaded by method D) [min] | % Released ([1]; loaded by method D, 5 min) [%] | % Released ([1]; loaded by method D, 15 min) [%] | % Released ([1]; loaded by method D, 25 min) [%] | % Released ([1]; loaded by method D, 40 min) [%] | % Released ([1]; loaded by method D, 60 min) [%] | Decomposing temperature [2] [°C] | Adsorption or inclusion level ([3]; 1-MCP loaded by method A (solid method)) [%] | Adsorption or inclusion level ([3]; 1-MCP loaded by method D (solution in pH 4.6 buffer, 50 mg S4/mL)) [%] | Change of X-ray pattern / structure after soaking in water [4]
OC[C@H]1O[C@@H]2O[C@H]3[C@H](O)[C@@H](O)[C@@H](O[C@H]4[C@H](O)[C@@H](O)[C@@H](O[C@H]5[C@H](O)[C@@H](O)[C@@H](O[C@H]6[C@H](O)[C@@H](O)[C@@H](O[C@H]7[C@H](O)[C@@H](O)[C@@H](O[C@H]1[C@H](O)[C@H]2O)O[C@@H]7CO)O[C@@H]6CO)O[C@@H]5CO)O[C@@H]4CO)O[C@@H]3CO [S4, Alpha cyclodextrin] | almost instantaneously | ≤ 40 | 39 | 62 | 84 | 100 | 100 | 280 | 0.05 | 2.46 | dramatic structure change after 1 hour soaking in water
OC[C@H]1O[C@@H]2O[C@H]3[C@H](O)[C@@H](O)[C@@H](O[C@H]4[C@H](O)[C@@H](O)[C@@H](O[C@H]5[C@H](O)[C@@H](O)[C@@H](O[C@H]6[C@H](O)[C@@H](O)[C@@H](O[C@H]7[C@H](O)[C@@H](O)[C@@H](O[C@H]8[C@H](O)[C@@H](O)[C@@H](O[C@H]1[C@H](O)[C@H]2O)O[C@@H]8CO)O[C@@H]7CO)O[C@@H]6CO)O[C@@H]5CO)O[C@@H]4CO)O[C@@H]3CO [C-b, beta cyclodextrin] | – | – | – | – | – | – | – | 280 | – | – | –
